Marks after values point to notes of the source that are not given here.
What was measured:
[1] = system: LPS-induced complement activation (plasma C3d protein levels); assay: In vivo PD model of LPS-induced complement activation in mice; parameters: species or system female C57BL/6J mice; conditions: for inhibition of C3d levels (LPS-induced complement activation): LPS i.p., plasma Western blot, FIG. 1; for inhibitory effect compared with LNP023: LPS-induced complement activation, C3d levels
Procedure: Experimental objective: To investigate the inhibitory effect of the compounds of the present disclosure on complement activation in mice induced by LPS stimulation. Experimental animals: female C57BL/6J mice, 7 to 9 weeks old, weighing 17 to 23 g; supplier: Shanghai Sipple-Bikai Laboratory Animal Co., Ltd.
Experimental procedure: 100 μg of lipopolysaccharide (LPS) in Salmonella typhimurium (Sigma) dissolved in 100 μL of sterile PBS was intraperitoneally injected to induce complement activation in mice. Negative control animals were intraperitoneally injected 100 μL of sterile PBS, and administered alone by tube feeding (PO). Positive control animals were intraperitoneally injected LPS and PO drug vehicles (0.5% (w/v) methyl cellulose and 0.5% (v/v) Tween 80). The time points for administration and plasma collection are as follows:
(§1) Sample collection: 0.3 mL of blood samples were collected from the orbital venous plexus. All blood samples were added to 1.5 mL commercial EDTA-K2 anticoagulant tubes (supplied by Jiangsu Kangjian Medical Apparatus Co., Ltd.). After collection, within half an hour, the blood sample was centrifuged at 4° C., 3000 g for 10 min to aspirate the supernatant plasma, which was put in dry ice immediately, and stored in a refrigerator at −80° C. for Western blot analysis of downstream C3d protein levels after complement activation.

[2] = Pharmacokinetic study in mice; type: in vivo, male C57BL/6J mice
Procedure: Experimental objective: To investigate in vivo plasma pharmacokinetics of the compounds of the present disclosure after a single intravenous injection and intragastric administration in male C57BL/6J mice.
Experimental animals: male C57BL/6J mice, 7 to 9 weeks old, weighing 17 to 23 g; supplier: Shanghai Sipple-Bikai Laboratory Animal Co., Ltd.
as §1, with “0.03” for “0.3”, “by puncture of” for “from”, “saphenous vein in experimental animals at each time point, and the actual blood collection time was recorded.” for “orbital venous plexus.”, “LC-MS/MS analysis.” for “Western blot analysis of downstream C3d protein levels after complement activation.”
Data analysis: Plasma concentrations were processed using the non-compartmental model of WinNonlinTM Version 6.3 (Pharsight, Mountain View, CA) pharmacokinetic software, and pharmacokinetic parameters Cl, T1/2, Cmax, and AUC0-last were calculated using the linear/log trapezoidal method.

[3] = molecular target: alternative complement pathway in human serum; assay: Wieslab alternative complement pathway activation inhibition (enzyme activity test); type: biochemical; conditions: human serum diluted 1:23, Wieslab alternative pathway kit; read-out: AP MAC IC50
Procedure: The objective of this experiment is to determine the inhibitory activity of the compounds of the present disclosure on the alternative complement pathway in human serum by using the Wieslab® complement system alternative pathway kit.
Serum was diluted with diluent (1:23). Drugs were added to the diluted serum with 8 concentration gradients of up to 10 mM or 50 mM in a 5-fold serial dilution. […] The mixture of compound and serum was added to a 96-well plate (100 μL/well) provided in the kit, and activated at 37° C. for 1 hour. The plate was washed three times with wash buffer. The plate was added with detection antibody (100 μL) provided in the kit and incubated at room temperature for 30 min. The plate was washed three times with wash buffer. The plate was added with substrate (100 μL) and incubated at room temperature for 30 min.

[4] = Pharmacokinetic study in rats; type: in vivo, male Wistar Han rats
Procedure: Experimental objective: To investigate in vivo plasma pharmacokinetics of the compounds of the present disclosure after a single intravenous injection and intragastric administration in male Wistar Han rats.
Experimental procedure: injection administration (IV): a dose of 1 mpk (vehicle: 30% PEG300/10% Cremphor EL/60% PBS (1×pH 7.4)); oral administration (PO): a dose of 5 mpk or 30 mpk (vehicle: 30% PEG300/10% Cremphor EL/60% PBS (1×pH 7.4))
Sample collection: About 0.3 mL of blood samples were collected by puncture of the jugular vein in experimental animals at each time point, and the actual blood collection time was recorded. All blood samples were added to 1.5 mL commercial EDTA-K2 anticoagulant tubes (supplied by Jiangsu Kangjian Medical Apparatus Co., Ltd.). After collection, the blood sample was centrifuged at 4° C., 3200 g for 10 min to aspirate the supernatant plasma, which was put in dry ice immediately, and stored in a refrigerator at −80° C. for LC-MS/MS analysis.
Data analysis: Plasma concentrations were processed using the non-compartmental model of Phoenix WinNonlin 6.3 pharmacokinetic software, and pharmacokinetic parameters Cl, Cmax, T1/2, and AUC0-last were calculated using the linear/log trapezoidal method.

[5] = system: Sheep Anti-Rat Fx1A Serum induced Heymann nephritis; assay: In vivo pharmacodynamic model of passive Heymann nephritis in rats; parameters: species or system male SD rats; conditions: intragastric twice a day for 14 days, FIG. 2
Text: Experimental objective: To investigate the ability of the compounds of the present disclosure to improve renal function of Sheep Anti-Rat Fx1A Serum induced Heymann nephritis in rats, including the evaluation of reducing proteinuria level and improving renal tissue damage.
Experimental animals: male SD rats, 7 to 10 weeks old, weighing 200 to 300 g; supplier: Beijing Vital River Laboratory Animal Technology Co., Ltd.
Urine was collected from rats on D-2 before administration. […]
Kidney sample collection: All animals were euthanized with CO2 inhalation anesthesia on Day 15, and bilateral kidneys were collected. […] Urine total protein (uTP) in rats was detected without dilution; if exceeding the upper detection limit, it was 10-fold diluted (10 μL of sample+90 μL of saline (0.9% saline)) first (Decrease mode); if still exceeding the upper detection limit after 10-fold dilution, it was 100-fold diluted (2 μL of sample+198 μL of saline (0.9% saline)) (Increase mode). Data were read by the analytical instrument HITACHI LST008 AS (P). • (2) Kidney pathological scoring: The degree of drug damage to rat kidneys (paraffin sections) was analyzed by HE staining. […]

[6] = male, Wistar Han, rat, plasma, 1 mg/kg, IV (1 mpk)
[7] = male, C57BL/6J, mouse, plasma, 1 mg/kg, IV (1 mpk)
[8] = male, C57BL/6J, mouse, plasma, 10 mg/kg, PO (10 mpk)

Structure (SMILES) | inhibition of C3d levels (LPS-induced complement activation) [1] | inhibitory effect compared with LNP023 [1] | Cl ([2]; IV (1 mpk)) | T1/2 ([2]; IV (1 mpk)) | AUC0-last ([2]; PO (10 mpk)) | Cmax ([2]; PO (10 mpk)) | IC50 [3] | also measured
COc1cc(C)c2[nH]ccc2c1CN1CC[C@H](C2CC2)C[C@H]1c1ccc(C(=O)O)cc1 [Compound 3A] | significantly inhibit C3d levels | better inhibitory effect than that of LNP023 | 12.0 mL/min/kg | 3.9 h | 11.156 µM·h | 4770 nM | 23.6 nM | –
COc1cc(C)c2[nH]ccc2c1CN1CC[C@@H](C2CC2)C[C@H]1c1ccc(C(=O)O)cc1 [Compound 3C] | significantly inhibit C3d levels | better inhibitory effect than that of LNP023 | 11.1 mL/min/kg | 3.4 h | 23.3 µM·h | 6320 nM | 51.7 nM | Cl ([4]; IV (1 mpk)): 4.6 mL/min/kg; T1/2 ([4]; IV (1 mpk)): 3.8 h; F % ([4]; PO (5 mpk or 30 mpk)): 62%; Cmax ([4]; PO (5 mpk or 30 mpk), dose-normalized data): 838 nM; AUC0-last ([4]; PO, a dose of 5 mpk, dose-normalized data): 5399^a nM · h
CCO[C@H]1CCN(Cc2c(OC)cc(C)c3[nH]ccc23)[C@H](c2ccc(C(=O)O)cc2)C1 [LNP023, reference compound] | significantly inhibit C3d levels | – | – | – | – | – | – | urinary protein levels and renal function [5]: significantly inhibit urinary protein levels in rats and improve renal function in rats; clearance [4, 6]: 6.7 mL/min/kg; half-life [4, 6]: 1.2 h; AUC(0-t) ([4]; male, Wistar Han, rat, plasma, 30 mg/kg, PO, a dose of 30 mpk, dose-normalized data): 2.19 µM·h; bioavailability ([4]; male, Wistar Han, rat, plasma, PO (5 mpk or 30 mpk)): 38%; Cmax ([4]; male, Wistar Han, rat, plasma, PO (5 mpk or 30 mpk), dose-normalized data): 379 nM; clearance [2, 7]: 18.4 mL/min/kg; half-life [2, 7]: 1.3 h; AUC(0-t) [2, 8]: 9.3 µM·h; Cmax [2, 8]: 2500 nM

Source: US20240109861A1, “SERIES OF PIPERIDINE-SUBSTITUTED BENZOIC ACID COMPOUNDS, AND USE THEREOF” (priority 2020, published 2024)
